Like-named read-outs stand apart in the source and are kept apart here.
Columns and labels:
UM 92-1 cells [1] = assay: Cell proliferation, UM 92-1 cells; type: cell-based, human; conditions: for effect on proliferation: UM 92-1 cells, 3c 30 and 100 nM, pentazocine 2 μM, AC927 2 μM, Figure 3a
Protocol: (§1) Cells were seeded in 96-well plates at a cell-specific density, following quantification of cell numbers on counting chambers after trypsinization and staining with trypan blue. After seeding (72 h), at a cell confluence of ~50%, the medium was removed, and treatments were started with fresh media. Treatments, carried out in quadruplicate, lasted for 48 h. Then, the cells were fixed with 4% paraformaldehyde in PBS for 20 min and, after washing, stained with either 1% crystal violet in water or an acridine orange solution (50 µg/mL) for an additional 20 min. At the end of the incubations, cells were washed (3 times) with 100 μL/well of bidistilled water. Finally, for crystal violet assays, 100 μL of 10% acetic acid was added to each well, and the absorbance (λ = 590 nm) was measured with a Synergy HTX Bioteck spectrophotometer (BioSPX, Beersel, Belgium). For acridine orange assays, cell staining was evaluated by measuring the fluorescence (excitation 485/20 nm, emission 528/20 nm) with the Synergy HTX Bioteck reader.

A375 cells = assay: Cell proliferation, CM A375 cells; type: cell-based, human; conditions: for effect on proliferation: CM A375 cells, 3c 90 and 200 nM, pentazocine 2 μM, AC927 2 μM, Figure 3b
Protocol: as §1

σ1R = target: T1, σ1R (Cavia porcellus, UniProt Q60492); assay: σ1R radioligand binding assay ([3H]-(+)-pentazocine); design: species or system guinea pig
T1 construct: using guinea pig brain membranes and appropriate radioligands; from tissue; host or cells: guinea pig brain membranes
Protocol: (§4) Radioactivity was determined with a Beckman LS6500 scintillation counter. Inhibition constants (Ki values) were calculated with the EBDA/LIGAND program (Elsevier/Biosoft).

σ2R = target: T2, σ2R (Cavia porcellus, UniProt H0V073); assay: σ2R radioligand binding assay ([3H]-DTG); design: species or system guinea pig
T2 construct: using guinea pig brain membranes and appropriate radioligands; from tissue; host or cells: guinea pig brain membranes
T2 sequence (H0V073 1-176): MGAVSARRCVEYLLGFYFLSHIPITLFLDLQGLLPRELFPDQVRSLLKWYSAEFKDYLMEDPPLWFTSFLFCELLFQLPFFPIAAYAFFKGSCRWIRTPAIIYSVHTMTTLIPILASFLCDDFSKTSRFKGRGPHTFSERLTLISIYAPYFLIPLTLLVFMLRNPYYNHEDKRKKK
Protocol: as §4

endothelial C166 cells = assay: Tube formation assay, VEGF-A-stimulated endothelial cells; type: cell-based, mouse; conditions: for effect on VEGF-A-stimulated angiogenesis (tube lengths, mesh areas, node numbers; words): 5 µM; for antiangiogenic effect in the presence of pentazocine: 5 µM plus σ1R agonist pentazocine 2 μM; for antiangiogenic effect in the presence of pentazocine / antiangiogenic effect in the presence of AC927: combined score; for antiangiogenic effect in the presence of AC927: 5 µM plus σ2R antagonist AC927 2 μM
Protocol: The tube formation assay using mouse endothelial […] cells was analyzed employing Matrigel (BD, Bedford, MA, USA), as previously described. Briefly, 96-well plates coated with Matrigel (50 μL/well) were filled with 100 μL medium/well and maintained overnight. Endothelial cells were seeded at 2.5 × 10^4 cells/well and incubated (for 3 h) with VEGF-A (80 ng/mL), in the presence of the indicated treatments. Then, capillary-like structures were imaged (×4 magnification) with a CCD camera connected with an inverted EVOS microscope. Finally, ImageJ software (NIH, Bethesda, MD, USA) was employed to quantify tube formations.

UM 92-1 cells [2] = assay: Tumor cell spreading assay, 92-1 cells; type: cell-based, human; conditions: 1 h; for cells flat, with protrusions, Exp 1 (%) / cells flat, with protrusions, Exp 2 (%) / cells flat, with protrusions, Exp 3 (%) / rounded cells, Exp 1 (%) / rounded cells, Exp 2 (%) / rounded cells, Exp 3 (%): 92-1, % of total cell population; for inhibition of cell spreading: UM 92-1 cells, from 100 nM
Protocol: (§2) Adherent 92-1 and MCF-7 cells were harvested using 0.05% Trypsin-EDTA and plated in 6-well plates. After 1 h incubations with the indicated treatments, the number of cells that formed, or not, distinct protrusions (lamellipodia, filopodia) were scored with an inverted microscope (20×, EVOS cell imaging system, Thermo Fisher, Waltham, MA, USA).

MCF7 cells = assay: Tumor cell spreading assay, MCF7 cells; type: cell-based, human; conditions: 100 nM, 1 h; for inhibition of cell spreading: MCF7 cells (low σ1R); for cells flat, with protrusions, Exp 1 (%) / cells flat, with protrusions, Exp 2 (%) / cells flat, with protrusions, Exp 3 (%) / rounded cells, Exp 1 (%) / rounded cells, Exp 2 (%) / rounded cells, Exp 3 (%): MCF-7, % of total cell population
Protocol: as §2

[3] = test system: HDAC (total HDAC activity, HCT116 cell lysates); assay: HDAC activity colorimetric assay in HCT116 cell lysates; type: biochemical, human
Protocol: (§3) HDAC activity was determined in the indicated cell lysates (50 µg proteins; 37 °C) using the non-selective HDAC Activity Colorimetric Assay kit (BioVision, Cambridge, UK), following the procedures described in previous studies. Samples were read at 405 nm with a microplate reader (Multiskan GO (Thermo Fisher Scientific, Waltham, MA, USA)), and the HDAC activity was expressed as the relative optical density (O.D.) values.

[4] = test system: HDAC enzymatic activities (MCF7, PC3, AGS cell lysates); assay: HDAC activity colorimetric assay in other cancer cell lysates (MCF7, PC3, AGS); type: biochemical, human; conditions: other cancer cell types (MCF7, PC3, AGS lysates) vs control
Protocol: as §3

A549 cells = assay: Cell proliferation, A549 cells; type: cell-based; conditions: Homo sapiens; A549 (Lung Carcinoma); 48 h; mean ± SD; read-out: Antiproliferative IC50
Protocol: as §1

786-O cells = assay: Cell proliferation, 786-O cells; type: cell-based; conditions: Homo sapiens, 786-0; 786-O (Renal Adenocarcinoma); 48 h; mean ± SD; read-out: Antiproliferative IC50
Protocol: as §1

MRC-5 cells = assay: Cell proliferation, normal MRC-5 fibroblasts; type: cell-based; conditions: Homo sapiens, MRC5; MRC-5 (Normal Lung Fibroblast); 48 h; mean ± SD; read-out: Antiproliferative IC50
Protocol: as §1

T84 cells = assay: Cell proliferation, T84 cells; type: cell-based, human
Protocol: as §1

WS1 cells = assay: Cell proliferation, normal WS1 fibroblasts; type: cell-based; conditions: Homo sapiens; WS1 (Normal Skin Fibroblast); 48 h; mean ± SD; read-out: Antiproliferative IC50
Protocol: as §1

T1 sequence (Q60492 whole entry): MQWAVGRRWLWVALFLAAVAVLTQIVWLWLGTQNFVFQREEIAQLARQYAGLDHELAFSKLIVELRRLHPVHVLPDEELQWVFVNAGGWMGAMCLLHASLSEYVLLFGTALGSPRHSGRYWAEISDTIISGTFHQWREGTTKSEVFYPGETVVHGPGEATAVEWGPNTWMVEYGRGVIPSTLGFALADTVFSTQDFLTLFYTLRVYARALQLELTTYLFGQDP

## c1ccc(CCN2CCCCC2)cc1 [AC927, reference compound]
UM 92-1 cells [1]
  effect on proliferation: did not alter
A375 cells
  effect on proliferation: did not alter

## COC(=O)/C=C/c1ccc(CN2CCC(O)(c3ccc(Cl)cc3)CC2)cc1 [3c, Metil-(E)-3-(4-{[4-(4-clorofenil)-4-idrossipiperidin-1-il]methyl}phenyl)acrylate]
σ1R
  Ki: 28 ± 4.4 nM
σ2R; guinea pig brain membranes, mean ± SD, read-out: Ki σ2R
  Ki: 1330 ± 286 nM
UM 92-1 cells [1]
  effect on proliferation: loss of activity
A375 cells
  effect on proliferation: loss of activity
Endothelial C166 cells; 3 h, VEGF-A 80 ng/mL
  effect on VEGF-A-stimulated angiogenesis (tube lengths, mesh areas, node numbers; words): mimicked the effects of 5c
UM 92-1 cells [2]; 100 nM
  cells flat, with protrusions, Exp 1 (%): 36,01%
  cells flat, with protrusions, Exp 2 (%): 25,21%
  cells flat, with protrusions, Exp 3 (%): 33,92%
  rounded cells, Exp 1 (%): 63,99%
  rounded cells, Exp 2 (%): 74,79%
  rounded cells, Exp 3 (%): 66,08%
UM 92-1 cells [2]; 5 µM
  cells flat, with protrusions, Exp 1 (%): 45,38%
  cells flat, with protrusions, Exp 2 (%): 18,28%
  cells flat, with protrusions, Exp 3 (%): 39,44%
  rounded cells, Exp 1 (%): 54,62%
  rounded cells, Exp 2 (%): 81,72%
  rounded cells, Exp 3 (%): 60,56%
UM 92-1 cells [2]
  inhibition of cell spreading: significantly suppressed
MCF7 cells
  inhibition of cell spreading: unable to significantly inhibit
  cells flat, with protrusions, Exp 1 (%): 49,37%
  cells flat, with protrusions, Exp 2 (%): 50,89%
  cells flat, with protrusions, Exp 3 (%): 46,27%
  rounded cells, Exp 1 (%): 50,63%
  rounded cells, Exp 2 (%): 49,11%
  rounded cells, Exp 3 (%): 53,73%

## CCCC(CCC)C(=O)O[C@@H](CCCN1CCC(O)(c2ccc(Cl)cc2)CC1)c1ccc(F)cc1 [(-)-1, reference compound]
Endothelial C166 cells
  antiangiogenic effect in the presence of pentazocine: partially and equally blocked
  antiangiogenic effect in the presence of AC927: partially and equally blocked
Endothelial C166 cells; 3 h, VEGF-A 80 ng/mL
  effect on VEGF-A-stimulated angiogenesis (tube lengths, mesh areas, node numbers; words): significantly inhibited
UM 92-1 cells [2]; 100 nM
  cells flat, with protrusions, Exp 1 (%): 33,84%
  cells flat, with protrusions, Exp 2 (%): 21,33%
  cells flat, with protrusions, Exp 3 (%): 34,97%
  rounded cells, Exp 1 (%): 66,16%
  rounded cells, Exp 2 (%): 78,67%
  rounded cells, Exp 3 (%): 65,03%
UM 92-1 cells [2]; 5 µM
  cells flat, with protrusions, Exp 2 (%): 13,49%
  cells flat, with protrusions, Exp 3 (%): 26,09%
  rounded cells, Exp 2 (%): 86,51%
  rounded cells, Exp 3 (%): 73,91%
UM 92-1 cells [2]
  inhibition of cell spreading: reduced UM cell spreading with seemingly higher potencies
MCF7 cells
  inhibition of cell spreading: unable to significantly inhibit
  cells flat, with protrusions, Exp 1 (%): 45,95%
  cells flat, with protrusions, Exp 2 (%): 48,03%
  cells flat, with protrusions, Exp 3 (%): 40,28%
  rounded cells, Exp 1 (%): 54,05%
  rounded cells, Exp 2 (%): 51,97%
  rounded cells, Exp 3 (%): 59,72%

## CC(C)=CCN1CCC2(C)c3cc(O)ccc3CC1C2C (stereo not drawn) [PTZ, pentazocine, reference compound]
UM 92-1 cells [1]
  effect on proliferation: did not alter
A375 cells
  effect on proliferation: did not alter

## Cl.O=C(/C=C/c1ccc(CN2CCC(O)(c3ccc(Cl)cc3)CC2)cc1)NO [5c, (E)-4-(4-chlorophenyl)-4-hydroxy-1-{4-[3-(hydroxyamino)-3-oxoprop-1-en-1-yl]benzyl}piperidin-1-ium chloride]
σ1R
  Ki: 19 ± 1.6 nM
σ1R; σ1R vs σ2R Ki
  fold higher affinity for σ1R than σ2R: > 100 fold
σ2R
  Ki: 2050 ± 737 nM
[3]
  HDAC inhibition with respect to the vehicle control: ~ 80%
[3]; 0–20 µM, read-out: IC50 on HDAC-dependent catalytic activity
  IC50: 14.6 nM
[4]
  suppression of resident HDAC enzymatic activities: significant suppression
UM 92-1 cells [1]; 92-1 vs MRC-5 IC50
  superior antiproliferative potency in UM cells compared to normal lung fibroblasts: ~ 5 fold
UM 92-1 cells [1]; Homo sapiens, 92.1 (Uveal Melanoma), 48 h, mean ± SD, read-out: Antiproliferative IC50
  IC50: 24.8 ± 5.8 nM
A375 cells; CM A375, lung A549 and renal 786-O vs WS1
  shift to the left in antiproliferative dose–response curves compared to normal skin fibroblasts: 8–10 fold
A375 cells; Homo sapiens, A-375, A375 (Cutaneous Melanoma), 48 h, mean ± SD, read-out: Antiproliferative IC50
  IC50: 91.5 ± 11.4 nM
A549 cells
  IC50: 118 ± 13 nM
786-O cells
  IC50: 150 ± 24 nM
MRC-5 cells
  IC50: 157 ± 55.2 nM
T84 cells; Homo sapiens, T84 (Colorectal Carcinoma), 48 h, mean ± SD, read-out: Antiproliferative IC50
  IC50: 1200 ± 381 nM
T84 cells; colon cancer T84 cells
  sensitivity to antitumor actions: resistant
WS1 cells
  IC50: 1160 ± 187 nM
Endothelial C166 cells; 30 nM, 3 h, VEGF-A 80 ng/mL
  effect on VEGF-A-stimulated angiogenesis: without effects
Endothelial C166 cells
  antiangiogenic effect in the presence of pentazocine: completely prevented
  antiangiogenic effect in the presence of AC927: to a significantly lesser extent than pentazocine
Endothelial C166 cells; 3 h, VEGF-A 80 ng/mL
  effect on VEGF-A-stimulated angiogenesis (tube lengths, mesh areas, node numbers; words): abrogated
UM 92-1 cells [2]; 100 nM
  cells flat, with protrusions, Exp 1 (%): 37,23%
  cells flat, with protrusions, Exp 2 (%): 27,77%
  cells flat, with protrusions, Exp 3 (%): 37,27%
  rounded cells, Exp 1 (%): 62,77%
  rounded cells, Exp 2 (%): 72,23%
  rounded cells, Exp 3 (%): 62,73%
UM 92-1 cells [2]; 5 µM
  cells flat, with protrusions, Exp 1 (%): 28,48%
  cells flat, with protrusions, Exp 2 (%): 17,22%
  cells flat, with protrusions, Exp 3 (%): 33,05%
  rounded cells, Exp 1 (%): 71,52%
  rounded cells, Exp 2 (%): 82,78%
  rounded cells, Exp 3 (%): 66,95%
UM 92-1 cells [2]
  inhibition of cell spreading: significant inhibition
MCF7 cells
  inhibition of cell spreading: failed to suppress
  cells flat, with protrusions, Exp 1 (%): 47,13%
  cells flat, with protrusions, Exp 2 (%): 44,67%
  cells flat, with protrusions, Exp 3 (%): 39,07%
  rounded cells, Exp 1 (%): 52,87%
  rounded cells, Exp 2 (%): 55,33%
  rounded cells, Exp 3 (%): 60,93%
